The text below walks through data of patent publication US20240345095A1, “AN ASSAY FOR DETERMINING GASTROINTESTINAL PERMEABILITY BY DETERMINING A RATIO OF THE CONCENTRATION OF LACTULOSE TO THE CONCENTRATION OF GALACTOSE IN THE BLOOD SAMPLE” (TriviumVet Designated Activity Company, priority 2021, published 2024).

Series [1] can be described thus: Plasma absorption time course of lactulose and galactose after oral administration (findings stated in the summary). The format is in vivo.
Another series relates to gastric ulcers. Conditions: foals, ulcers associated with intravenous administration of high-dose NSAIDs; cited from earlier work.
For series [2], the target named is H-2 receptors on the parietal cell (Homo sapiens, UniProt P25021). Particulars: human subjects, administered intravenously; cited from earlier work.
Chain of H-2 receptors on the parietal cell (P25021 whole entry): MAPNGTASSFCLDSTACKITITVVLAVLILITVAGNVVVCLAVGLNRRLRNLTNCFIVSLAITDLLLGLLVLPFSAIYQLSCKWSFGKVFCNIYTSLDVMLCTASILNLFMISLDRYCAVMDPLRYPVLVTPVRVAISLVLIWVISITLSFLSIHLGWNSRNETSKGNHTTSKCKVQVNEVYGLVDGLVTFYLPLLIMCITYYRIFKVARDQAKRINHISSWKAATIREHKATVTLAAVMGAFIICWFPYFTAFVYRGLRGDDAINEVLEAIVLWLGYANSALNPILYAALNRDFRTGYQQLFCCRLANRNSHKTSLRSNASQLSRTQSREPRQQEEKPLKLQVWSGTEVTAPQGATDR

Regarding `O=C[C@H](O)[C@@H](O)[C@@H](O)[C@H](O)CO` [galactose], the “Time at which galactose absorption peaks” value in series [1] (after oral administration) was not above 15 min. Further, in series [1] (after oral administration, majority of individuals tested), the “Time galactose remains present in plasma at measurable micromolar concentrations” value is reported as “approximately 60 minutes”. The “Time to peak plasma concentrations of galactose” value in series [1] (galactose concentrations below 2% in the oral solution) was not above 5 min. `OC[C@H]1O[C@@H](O[C@@H]2[C@@H](CO)OC(O)(CO)[C@H]2O)[C@H](O)[C@@H](O)[C@H]1O` (mixture of isomers) [Lactulose, lactulose]: in series [1] (after oral administration), the “Time after which the rate of lactulose absorption slows” value is given as “approximately 60 minutes”. For the same compound, the “Period over which lactulose absorption occurs” value in series [1] (health and disease states, after oral administration) is on record as “up to 3 hours”. sucralfate: in the series on gastric ulcers, the “Effect on gastric ulcers” value is on record as “protective effect”.

For `NC(N)=Nc1nc(CSCCC(N)=NS(N)(=O)=O)cs1` [famotidine], in series [2], the “Time to pharmacological tolerance” value is on record as 12-72 hours.
